Data from ChEMBL document CHEMBL1127282, “Structure-activity relationships in the amino acid sidechain of L-692,429” (Bioorg Med Chem Lett, 1994).
Activity calls are given as the source filed them. The rule behind the calls is not given here.

Assays:
[1] = molecular target: Growth hormone secretagogue receptor type 1 (Rattus norvegicus) (UniProt O08725); assay: In vitro effective dose was measured for the growth hormone release in rat pituitary cells; type: functional, cell-based; conditions: Pituitary gland cell
[2] = pKa value was determined; type: physicochemical
Rattus norvegicus = organism: Rattus norvegicus; assay: In vitro effective dose was measured for the growth hormone release in rat pituitary cells; Inactive at 20 ug/mL; type: functional, cell-based; conditions: Pituitary gland cell

Sequence of Growth hormone secretagogue receptor type 1 (Rattus norvegicus) (O08725 whole entry): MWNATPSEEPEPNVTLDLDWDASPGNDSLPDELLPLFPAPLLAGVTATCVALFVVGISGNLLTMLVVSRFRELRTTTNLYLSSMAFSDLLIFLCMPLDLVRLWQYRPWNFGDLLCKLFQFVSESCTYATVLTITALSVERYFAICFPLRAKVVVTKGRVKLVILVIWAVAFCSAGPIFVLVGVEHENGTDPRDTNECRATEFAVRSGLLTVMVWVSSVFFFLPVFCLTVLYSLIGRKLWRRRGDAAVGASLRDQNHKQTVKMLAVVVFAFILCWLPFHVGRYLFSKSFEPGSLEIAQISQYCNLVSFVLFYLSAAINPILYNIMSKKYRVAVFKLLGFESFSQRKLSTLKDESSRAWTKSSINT

SMILES	ED50 [1] [µM]	also measured
N[C@@H]1CCc2ccccc2N(Cc2ccc(-c3ccccc3-c3nn[nH]n3)cc2)C1=O	9	
CC(C)(N)CC(=O)N[C@@H]1CCc2ccccc2N(Cc2ccc(-c3ccccc3-c3nnn[nH]3)cc2)C1=O		pKa [2]: 9.3
CC(=O)N[C@@H]1CCc2ccccc2N(Cc2ccc(-c3ccccc3-c3nn[nH]n3)cc2)C1=O		ED50 (Rattus norvegicus): inactive
C[C@@H](N)C(=O)N[C@@H]1CCc2ccccc2N(Cc2ccc(-c3ccccc3-c3nn[nH]n3)cc2)C1=O (stereo in doubt; 11)	1.4	
NCCC(=O)N[C@@H]1CCc2ccccc2N(Cc2ccc(-c3ccccc3-c3nn[nH]n3)cc2)C1=O	2	
CC(=O)NC(C)(C)CC(=O)N[C@@H]1CCc2ccccc2N(Cc2ccc(-c3ccccc3-c3nn[nH]n3)cc2)C1=O		ED50 (Rattus norvegicus): inactive
CC(C)(CN)C(=O)N[C@@H]1CCc2ccccc2N(Cc2ccc(-c3ccccc3-c3nn[nH]n3)cc2)C1=O	3	
CC(C)(CC(=O)N[C@@H]1CCc2ccccc2N(Cc2ccc(-c3ccccc3-c3nn[nH]n3)cc2)C1=O)NCCO	30	
CCCNC(C)(C)CC(=O)N[C@@H]1CCc2ccccc2N(Cc2ccc(-c3ccccc3-c3nn[nH]n3)cc2)C1=O	50	
CC(C)(N)C(=O)N[C@@H]1CCc2ccccc2N(Cc2ccc(-c3ccccc3-c3nn[nH]n3)cc2)C1=O	0.03	pKa [2]: 7.9
CC(C)(CC(=O)N[C@@H]1CCc2ccccc2N(Cc2ccc(-c3ccccc3-c3nn[nH]n3)cc2)C1=O)NC(=O)OC(C)(C)C		ED50 (Rattus norvegicus): inactive
CC(C)(CC(=O)N[C@@H]1CCc2ccccc2N(Cc2ccc(-c3ccccc3-c3nn[nH]n3)cc2)C1=O)NCc1ccccc1	65	
CC(C)(C)CC(=O)N[C@@H]1CCc2ccccc2N(Cc2ccc(-c3ccccc3-c3nn[nH]n3)cc2)C1=O		ED50 (Rattus norvegicus): inactive
CC(C)(N)CCC(=O)N[C@@H]1CCc2ccccc2N(Cc2ccc(-c3ccccc3-c3nn[nH]n3)cc2)C1=O	3	
CC(C)(CC(=O)N[C@@H]1CCc2ccccc2N(Cc2ccc(-c3ccccc3-c3nn[nH]n3)cc2)C1=O)NCCN	230	
C[C@@H](N)C(=O)N[C@@H]1CCc2ccccc2N(Cc2ccc(-c3ccccc3-c3nn[nH]n3)cc2)C1=O (stereo in doubt; 12)	0.1	
CC(C)(N)CC(=O)N[C@@H]1CCc2ccccc2N(Cc2ccc(-c3ccccc3-c3nn[nH]n3)cc2)C1=O	0.06	
C[C@@H](O)CNC(C)(C)CC(=O)N[C@@H]1CCc2ccccc2N(Cc2ccc(-c3ccccc3-c3nnn[nH]3)cc2)C1=O [L-692585]		pKa [2]: 9.1
C[C@@H](O)CNC(C)(C)CC(=O)N[C@@H]1CCc2ccccc2N(Cc2ccc(-c3ccccc3-c3nn[nH]n3)cc2)C1=O	3	
CC[C@@H](N)C(=O)N[C@@H]1CCc2ccccc2N(Cc2ccc(-c3ccccc3-c3nn[nH]n3)cc2)C1=O	0.3	
C[C@H](O)CNC(C)(C)CC(=O)N[C@@H]1CCc2ccccc2N(Cc2ccc(-c3ccccc3-c3nn[nH]n3)cc2)C1=O	7	
NCC(=O)N[C@@H]1CCc2ccccc2N(Cc2ccc(-c3ccccc3-c3nn[nH]n3)cc2)C1=O	9	
CC(C)CNC(C)(C)CC(=O)N[C@@H]1CCc2ccccc2N(Cc2ccc(-c3ccccc3-c3nn[nH]n3)cc2)C1=O	85	
N[C@H](Cc1ccccc1)C(=O)N[C@@H]1CCc2ccccc2N(Cc2ccc(-c3ccccc3-c3nn[nH]n3)cc2)C1=O	2	
